Positions of bridges follow the written chain, without caps; N, C: chain ends. Non-standard residues stand in square brackets, D forms with d. Residues, ends and D or L forms follow the SMILES beside them. Nle = CCCC[C@H](N)C(=O)O

By EC50 is commonly meant the concentration needed to bring the measured effect to its halfway point.

In one experiment the test system is conscious rabbits. Kind of experiment: Blood pressure and heart rate in conscious rabbits, intravenous infusion dose-response (Example 8).
Experiment [1] deals with T1, Natriuretic Peptide Receptor-A (NPR-A) signaling in MDCK cells (Canis lupus familiaris, UniProt A0A8I3MHU3).
T1 sequence (A0A8I3MHU3 32-1060): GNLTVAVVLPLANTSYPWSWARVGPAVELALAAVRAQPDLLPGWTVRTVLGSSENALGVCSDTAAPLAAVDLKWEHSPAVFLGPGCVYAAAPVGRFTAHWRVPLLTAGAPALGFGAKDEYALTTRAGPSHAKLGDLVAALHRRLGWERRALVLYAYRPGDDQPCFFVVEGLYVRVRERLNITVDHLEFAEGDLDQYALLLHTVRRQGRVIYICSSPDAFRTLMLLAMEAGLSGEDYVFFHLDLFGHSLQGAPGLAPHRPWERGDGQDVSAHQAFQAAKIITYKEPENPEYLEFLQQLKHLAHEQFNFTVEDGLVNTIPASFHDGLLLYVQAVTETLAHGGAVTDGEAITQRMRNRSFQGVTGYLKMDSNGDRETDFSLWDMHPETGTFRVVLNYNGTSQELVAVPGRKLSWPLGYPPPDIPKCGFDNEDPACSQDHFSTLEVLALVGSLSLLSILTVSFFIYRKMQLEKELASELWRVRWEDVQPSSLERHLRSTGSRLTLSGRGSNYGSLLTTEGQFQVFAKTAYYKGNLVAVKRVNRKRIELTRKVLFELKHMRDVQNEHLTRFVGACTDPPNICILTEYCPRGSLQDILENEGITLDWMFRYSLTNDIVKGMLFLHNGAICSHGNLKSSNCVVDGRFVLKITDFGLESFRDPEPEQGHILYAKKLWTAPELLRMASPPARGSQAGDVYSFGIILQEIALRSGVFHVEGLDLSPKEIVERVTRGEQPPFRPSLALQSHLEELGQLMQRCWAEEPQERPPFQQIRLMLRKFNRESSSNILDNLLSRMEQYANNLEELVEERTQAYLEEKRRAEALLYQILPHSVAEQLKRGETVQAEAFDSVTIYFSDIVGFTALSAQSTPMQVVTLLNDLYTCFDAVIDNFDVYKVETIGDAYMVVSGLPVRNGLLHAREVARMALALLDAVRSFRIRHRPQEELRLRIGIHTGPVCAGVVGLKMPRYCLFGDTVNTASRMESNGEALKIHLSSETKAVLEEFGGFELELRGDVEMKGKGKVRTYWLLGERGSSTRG
The class given is cell-based, canine. The following applies: stimulation of cGMP accumulation in MDCK cells; for EC50: read-out: EC50 (M) ± Standard Error.

[2] abbreviates: after a 2 hour recovery period, Table 10B.

For the compound `CC[C@H](C)[C@H](NC(=O)[C@H](CCCCN)NC(=O)[C@H](CO)NC(=O)[C@H](CC(=O)O)NC(=O)[C@@H](N)CO)C(=O)NCC(=O)N[C@@H](CC(N)=O)C(=O)NCC(=O)N[C@H]1CSSC[C@@H](C(=O)N[C@@H](CC(N)=O)C(=O)N[C@@H](CCCNC(=N)N)C(=O)N[C@H](C(=O)N[C@@H](CCSC)C(=O)N[C@@H](CCC(N)=O)C(=O)N[C@@H](CC(N)=O)C(=O)N2CCC[C@H]2C(=O)N2CCC[C@H]2C(=O)N[C@@H](CCCCN)C(=O)N[C@@H](CCCCN)C(=O)N[C@@H](Cc2ccccc2)C(=O)N[C@@H](CO)C(=O)NCC(=O)N[C@@H](CCC(=O)O)C(=O)O)[C@@H](C)CC)NC(=O)CNC(=O)[C@H](CC(C)C)NC(=O)CNC(=O)[C@H](CO)NC(=O)[C@H](C(C)C)NC(=O)[C@H](CO)NC(=O)[C@H](CCCNC(=N)N)NC(=O)[C@H]([C@@H](C)CC)NC(=O)[C@H](CCCNC(=N)N)NC(=O)[C@H](CC(=O)O)NC(=O)[C@H](CC(C)C)NC(=O)[C@@H]2CCCN2C(=O)[C@H](Cc2ccccc2)NC(=O)CNC(=O)[C@H](Cc2ccccc2)NC1=O` [TNPc R-18] (H-SDSKIGNGCFGFPLDRIRSVSGLGCNRIMQNPPKKFSGE-OH; disulfide 9-25; N-terminus assumed), the “MAP at final dose” value in the experiment with conscious rabbits (Table 10B) was 63.5 mm Hg. Further, in the experiment with conscious rabbits (setting [2]), the “Recovery (MAP)” value is reported as 67.4 mm Hg and the “Recovery Delta SED (MAP)” value turned out to be 3.8 ± 1.6 mm Hg. Besides, in the experiment on conscious rabbits (final dose, Table 10B, groups 2B and 2C), the “Treatment Effect, change of mean blood pressure during the infusion” value is given as −9.0 mm Hg. Further, in the experiment with conscious rabbits (highest dose), the “reduction of MAP compared to vehicle, in words” value was “did significantly reduce MAP”. Also, in experiment [1], the “−Log10 EC50 (pEC50) ± Standard Error” value stood at 6.777 ± 0.5812 and the EC50 came out at 7e-07 M.

Regarding `CC[C@H](C)[C@@H]1NC(=O)[C@H](CCCNC(=N)N)NC(=O)[C@H](CC(=O)O)NC(=O)[C@H]([C@@H](C)CC)NC(=O)[C@H](CCCCN)NC(=O)[C@H](Cc2c[nH]cn2)NC(=O)CNC(=O)[C@H](Cc2ccccc2)NC(=O)[C@@H](NC(=O)CNC(=O)[C@H](CC(N)=O)NC(=O)[C@@H]2CCCN2C(=O)[C@@H]2CCCN2C(=O)CNC(=O)[C@H](CCCCN)NC(=O)[C@H](CCCCN)NC(=O)[C@@H]2CCCN2C(=O)[C@@H]2CCCN2C(=O)[C@H](CCCCN)NC(=O)[C@H](CC(N)=O)NC(=O)[C@H](CC(=O)O)NC(=O)CN)CSSC[C@@H](C(=O)N[C@@H](CC(N)=O)C(=O)N[C@@H](CCCCN)C(=O)N[C@H](C(=O)N[C@@H](CC(=O)O)C(=O)N[C@@H](CC(=O)O)C(=O)N[C@@H](CC(N)=O)C(=O)N[C@@H](CCCCN)C(=O)NCC(=O)O)C(C)C)NC(=O)CNC(=O)[C@H](CC(C)C)NC(=O)CNC(=O)[C@H](CO)NC(=O)[C@H](Cc2c[nH]cn2)NC(=O)[C@H](CO)NC(=O)CNC1=O` [Lebetin] (H-GDNKPPKKGPPNGCFGHKIDRIGSHSGLGCNKVDDNKG-OH; disulfide 14-30; N-terminus and C-terminus assumed), in experiment [1], the “−Log10 EC50 (pEC50) ± Standard Error” value was 7.637 ± 0.1619 and the EC50 turned out to be 2.67e-08 M.

For the compound `CCCC[C@H](NC(=O)[C@@H](NC(=O)[C@H](CCCNC(=N)N)NC(=O)[C@H](CC(N)=O)NC(=O)[C@@H]1CSSC[C@H](NC(=O)CNC(=O)[C@H](CC(N)=O)NC(=O)CNC(=O)[C@@H](NC(=O)[C@H](CCCCN)NC(=O)[C@H](CO)NC(=O)[C@H](CC(=O)O)NC(=O)[C@@H](N)CO)[C@@H](C)CC)C(=O)N[C@@H](Cc2ccccc2)C(=O)NCC(=O)N[C@@H](Cc2ccccc2)C(=O)N2CCC[C@H]2C(=O)N[C@@H](CC(C)C)C(=O)N[C@@H](CC(=O)O)C(=O)N[C@@H](CCCNC(=N)N)C(=O)N[C@@H]([C@@H](C)CC)C(=O)NCC(=O)N[C@@H](CO)C(=O)N[C@@H](C(C)C)C(=O)N[C@@H](CO)C(=O)NCC(=O)N[C@@H](CC(C)C)C(=O)NCC(=O)N1)[C@@H](C)CC)C(=O)N[C@@H](CCC(N)=O)C(=O)N[C@@H](CC(N)=O)C(=O)N1CCC[C@H]1C(=O)N1CCC[C@H]1C(=O)N[C@@H](CCCCN)C(=O)N[C@@H](CCCCN)C(=O)N[C@@H](Cc1ccccc1)C(=O)N[C@@H](CO)C(=O)NCC(=O)N[C@@H](CCC(=O)O)C(=O)O` [Nle-TNPc] (H-SDSKIGNGCFGFPLDRIGSVSGLGCNRI[Nle]QNPPKKFSGE-OH; disulfide 9-25; N-terminus assumed), in experiment [1], the “−Log10 EC50 (pEC50) ± Standard Error” value was 6.497 ± 0.2017 and the EC50 is 3.99e-07 M.

For `CC[C@H](C)[C@H](NC(=O)[C@H](CCCCN)NC(=O)[C@H](CO)NC(=O)[C@H](CC(=O)O)NC(=O)[C@@H](N)CO)C(=O)NCC(=O)N[C@@H](CC(N)=O)C(=O)NCC(=O)N[C@H]1CSSC[C@@H](C(=O)N[C@@H](CC(N)=O)C(=O)N[C@@H](CCCNC(=N)N)C(=O)N[C@H](C(=O)N[C@@H](CCSC)C(=O)N[C@@H](CCC(N)=O)C(=O)N[C@@H](CC(N)=O)C(=O)N[C@@H](CCCNC(=N)N)C(=O)N2CCC[C@H]2C(=O)N[C@@H](CCCCN)C(=O)N[C@@H](CCCCN)C(=O)N[C@@H](Cc2ccccc2)C(=O)N[C@@H](CO)C(=O)NCC(=O)N[C@@H](CCC(=O)O)C(=O)O)[C@@H](C)CC)NC(=O)CNC(=O)[C@H](CC(C)C)NC(=O)CNC(=O)[C@H](CO)NC(=O)[C@H](C(C)C)NC(=O)[C@H](CO)NC(=O)CNC(=O)[C@H]([C@@H](C)CC)NC(=O)[C@H](CCCNC(=N)N)NC(=O)[C@H](CC(=O)O)NC(=O)[C@H](CC(C)C)NC(=O)[C@@H]2CCCN2C(=O)[C@H](Cc2ccccc2)NC(=O)CNC(=O)[C@H](Cc2ccccc2)NC1=O` [Peptide P32R-TNPc] (H-SDSKIGNGCFGFPLDRIGSVSGLGCNRIMQNRPKKFSGE-OH; disulfide 9-25; N-terminus assumed), in experiment [1], the “−Log10 EC50 (pEC50) ± Standard Error” value was determined as 7.680 ± 0.5322 and the EC50 was 9.91e-08 M.

(Values after US8058242B2, “Chimeric proteins with natriuretic activity” (The University of Queensland, priority 2004, dated 2011).)
